Data taken from paper PMC6389962 (Nature Communications, 2019).

Experiments:
[1] = Pharmacokinetic evaluation in mice, i.v. (final study, Fig. 5); details: C57BL/6J mice, LC-MS/MS
Protocol: Data are mean ± SEM, n = 3. Source data are provided as a Source Data file
After different time points, mice were sacrificed and blood samples were collected. The plasma was separated by centrifugation and the samples were frozen at −80 °C before analysis. A volume of 400 µL of each sample of plasma was mixed with 1 ml of acetonitrile to precipitate the protein and extract the compound. The sample were then vortexed and centrifuged (15,000 × g, 5 min, 16 °C) to sediment the precipitated protein.

[2] = molecular target: T1, mouse GLP-1 receptor (Mus musculus, UniProt O35659); assay: cell-based
T1 sequence (O35659 22-463): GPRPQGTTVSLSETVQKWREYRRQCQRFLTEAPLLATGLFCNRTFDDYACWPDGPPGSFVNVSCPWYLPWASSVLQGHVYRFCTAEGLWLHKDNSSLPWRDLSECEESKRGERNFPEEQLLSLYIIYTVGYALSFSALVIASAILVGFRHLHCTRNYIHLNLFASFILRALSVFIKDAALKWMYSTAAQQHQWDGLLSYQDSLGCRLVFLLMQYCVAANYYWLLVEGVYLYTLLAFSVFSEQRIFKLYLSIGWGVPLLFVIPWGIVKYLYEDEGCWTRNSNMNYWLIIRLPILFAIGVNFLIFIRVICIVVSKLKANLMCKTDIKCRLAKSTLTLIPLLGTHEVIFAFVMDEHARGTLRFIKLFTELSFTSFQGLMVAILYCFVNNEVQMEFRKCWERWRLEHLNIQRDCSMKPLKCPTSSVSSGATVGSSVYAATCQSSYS

[3] = system: normal mice (C57BL/6J); assay: Blood glucose study in normal fed mice; assay type: in vivo, mouse; design: key to In vivo activity (indicator): + active; +++: + + + more active
Procedure, shortened: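 Fed male C57BL/6J mice (8 weeks, 20–25 g, n = 3 per group) received a single i.v. dose of 5 µg per mouse (50 nmol kg^−1) in PBS at 10 am. Blood glucose measured before dosing and at 30 min, 1, 2, 4 and 6 h after.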

[4] = molecular target: NEP 24.11 (Homo sapiens, UniProt P08473); assay: in vitro; details: pH 8
NEP 24.11, sequence (P08473 whole entry): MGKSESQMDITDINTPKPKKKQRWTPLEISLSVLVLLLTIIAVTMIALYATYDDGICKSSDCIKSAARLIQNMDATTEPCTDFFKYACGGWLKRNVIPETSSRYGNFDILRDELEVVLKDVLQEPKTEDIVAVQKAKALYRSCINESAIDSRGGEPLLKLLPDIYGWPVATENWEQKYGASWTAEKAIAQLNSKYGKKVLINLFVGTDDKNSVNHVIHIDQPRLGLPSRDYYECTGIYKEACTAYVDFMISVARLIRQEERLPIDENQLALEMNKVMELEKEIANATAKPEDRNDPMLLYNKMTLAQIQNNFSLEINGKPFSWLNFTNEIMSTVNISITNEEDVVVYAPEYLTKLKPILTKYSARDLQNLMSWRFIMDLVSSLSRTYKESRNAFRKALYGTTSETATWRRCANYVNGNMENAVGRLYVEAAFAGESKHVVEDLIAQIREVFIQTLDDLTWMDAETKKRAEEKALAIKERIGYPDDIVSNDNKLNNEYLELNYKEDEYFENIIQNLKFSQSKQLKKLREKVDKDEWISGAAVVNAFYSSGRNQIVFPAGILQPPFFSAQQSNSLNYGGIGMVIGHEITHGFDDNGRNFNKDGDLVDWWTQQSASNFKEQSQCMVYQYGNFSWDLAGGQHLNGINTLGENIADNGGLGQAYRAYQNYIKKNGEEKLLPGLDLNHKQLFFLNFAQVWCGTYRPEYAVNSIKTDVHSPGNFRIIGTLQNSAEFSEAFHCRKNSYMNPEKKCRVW
Protocol: (§1) Stock solutions of the oligomers were prepared at a concentration of 400 µM in a solution of 50 mM HEPES buffer, 50 mM NaCl, 0.05% Tween-80, pH 8.0. Stock solution of NEP 24.11 was prepared at a concentration of 100 µg mL^−1 in water. Stability of oligomers to NEP 24.11 was assessed by conducting protease reaction in a 96-well plates at 20 °C. […] Each compound was also incubated in the absence of the enzyme (12 µL of HEPES buffer and 38 µL of oligomer). […] A portion of the quenched reaction solution was analysed by HPLC. The time course of peptide degradation was determined by integrating the area of each peak in a series of HPLC traces.

[5] = in vitro; details: isolated enzyme neprilysin, pH 8, % remaining analogue
Protocol: as §1

[6] = in vitro; details: mouse, plasma
Procedure, shortened: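 Oligomer at 5 µM final in mouse plasma/PBS pH 7.4 (1:1) at 37 °C, with a plasma-free control defining t = 0. Aliquots quenched in cold acetonitrile at 20 and 60 min; remaining oligomer quantified by LC-MS extracted-ion peak area.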

[7] = male, C57BL/6J, mouse, in vivo, iv, 1 mg/kg, Concentration (plasma), animal 1
[8] = male, C57BL/6J, mouse, in vivo, iv, 1 mg/kg, Concentration (plasma), animal 2
[9] = male, C57BL/6J, mouse, in vivo, iv, 1 mg/kg, Concentration (plasma), animal 3

CC[C@H](C)[C@H](NC(=O)[C@H](Cc1ccccc1)NC(=O)[C@H](CCC(=O)O)NC(=O)[C@H](CCCCN)NC(=O)[C@H](C)NC(=O)[C@H](C)NC(=O)[C@H](CCC(N)=O)NC(=O)CNC(=O)[C@H](CCC(=O)O)NC(=O)[C@H](CC(C)C)NC(=O)[C@H](Cc1ccc(O)cc1)NC(=O)[C@H](CO)NC(=O)[C@H](CO)NC(=O)[C@@H](NC(=O)[C@H](CC(=O)O)NC(=O)[C@H](CO)NC(=O)[C@@H](NC(=O)[C@H](Cc1ccccc1)NC(=O)[C@@H](NC(=O)CNC(=O)[C@H](CCC(=O)O)NC(=O)CNC(=O)[C@@H](N)Cc1c[nH]cn1)[C@@H](C)O)[C@@H](C)O)C(C)C)C(=O)N[C@@H](C)C(=O)N[C@@H](Cc1c[nH]c2ccccc12)C(=O)N[C@@H](CC(C)C)C(=O)N[C@H](C(=O)N[C@@H](CCCCN)C(=O)NCC(=O)N[C@@H](CCCNC(=N)N)C(=O)NCC(N)=O)C(C)C [compound 1, GLP-1-G^2 (GG2)]
Concentration (plasma) ([1]; time 3 min, animal 3): 3680 nM | Concentration (plasma) ([1]; time 15 min, animal 3): 60 nM | Concentration (plasma) ([1]; time 30 min, animal 2): 10 nM | Concentration (plasma) ([1]; time 30 min, animal 3): 0 nM | level at time molar at 1 min [1, 7]: 7920 nM | level at time molar at 1 min [1, 8]: 8370 nM | level at time molar at 1 min [1, 9]: 10800 nM | level at time molar at 0.05 h ([1]; male, C57BL/6J, mouse, in vivo, iv, 1 mg/kg, Concentration (plasma), time 3 min, animal 1): 3740 nM | level at time molar at 0.05 h ([1]; male, C57BL/6J, mouse, in vivo, iv, 1 mg/kg, Concentration (plasma), time 3 min, animal 2): 3500 nM | level at time molar at 5 min [1, 7]: 1780 nM | level at time molar at 5 min [1, 8]: 2610 nM | level at time molar at 5 min [1, 9]: 2540 nM | level at time molar at 10 min [1, 7]: 360 nM | level at time molar at 10 min [1, 8]: 430 nM | level at time molar at 10 min [1, 9]: 380 nM | level at time molar at […] ([1]; male, C57BL/6J, mouse, in vivo, iv, 1 mg/kg, Concentration (plasma), time 15 min, animal 1): 100 nM | level at time molar at […] ([1]; male, C57BL/6J, mouse, in vivo, iv, 1 mg/kg, Concentration (plasma), time 15 min, animal 2): 60 nM | level at time molar at 0.5 h ([1]; male, C57BL/6J, mouse, in vivo, iv, 1 mg/kg, Concentration (plasma), time 30 min, animal 1): 10 nM | EC50 [2]: 0.24 nM | Emax ([2]; read-out: Top (best-fit value)): 106% | In vivo activity (indicator) ([3]; mice, 50 nmol kg−1 i.v.): + | effect on blood glucose concentration ([3]; normal fed C57BL/6J mice, n = 3, 5 μg per mouse (50 nmol kg−1) i.v., monitored 6 h): decreased of blood glucose concentration after 30 min | % remaining analogue ([4]; isolated enzyme neprilysin, 22 h): 0.6% | NEP 24.11 t1/2 [4]: 216 min | remaining at 1 h [5]: 77.5% | remaining at 2 h [5]: 63.1% | remaining at 4 h [5]: 47.1% | remaining at 6 h [5]: 32.6% | half-life ([6]; pH 7.4): 16 min | remaining at 20 min ([6]; pH 7.4, % remaining analogue): 34.8% | remaining at 1 h ([6]; pH 7.4, % remaining analogue): 23.9%
